Results as given in PubChem BioAssay AID1259407 (Chemical Carcinogenesis Research Information System (CCRIS), 2018).
Entries after “also recorded” stand apart in the source; their conditions may differ. Calls of active or inactive are those of the source. How the calls were made is not given here.

System: CCRIS mutagenicity, Ames/micronucleus/aberration tests
Experiment: CCRIS mutagenicity studies

With `Nc1ccc([N+](=O)[O-])cc1N` the mutagenic call (End Point: IN VITRO CHROMOSOMAL ABERRATIONS, Test System: CHL CELLS, Metabolic Activation: RAT, LIVER, S-9, SODIUM PHENOBARBITAL AND 5,6-BENZOFLAVONE) was “inactive; negative; authors report equivocal results for structural changes at 0.75 , 1.5”, the mutagenic call (Test System: AMES SALMONELLA TYPHIMURIUM, Strain/Indicator: TA98(NR), Metabolic Activation: NONE, Method: PREINCUBATION) was “active; positive” and the mutagenic call (Test System: AMES SALMONELLA TYPHIMURIUM, Strain/Indicator: TA98(NR), Metabolic Activation: RAT, LIVER, S-9, AROCLOR 1254, Method: PREINCUBATION) was “active; positive”. The mutagenic call (Test System: AMES SALMONELLA TYPHIMURIUM, Strain/Indicator: TA98, Metabolic Activation: NONE) was “active; positive”, the mutagenic call (Test System: AMES SALMONELLA TYPHIMURIUM, Strain/Indicator: TA98, Metabolic Activation: NONE, Method: PREINCUBATION) was “active; positive” and the mutagenic call (Test System: AMES SALMONELLA TYPHIMURIUM, Strain/Indicator: TA98, Metabolic Activation: NONE, Method: STANDARD PLATE) was “active; positive”. For the same molecule, the mutagenic call (Test System: AMES SALMONELLA TYPHIMURIUM, Strain/Indicator: TA98, Metabolic Activation: PEA APICAL BUD S-9, Method: PREINCUBATION) was “active; positive”, the mutagenic call (Test System: AMES SALMONELLA TYPHIMURIUM, Strain/Indicator: TA98, Metabolic Activation: PEA APICAL BUD S-9, Method: STANDARD PLATE) was “active; positive” and the mutagenic call (Test System: AMES SALMONELLA TYPHIMURIUM, Strain/Indicator: TA98, Metabolic Activation: RAT, LIVER, S-9, AROCLOR 1254) was “active; positive”. The mutagenic call (Test System: AMES SALMONELLA TYPHIMURIUM, Strain/Indicator: TA98, Metabolic Activation: RAT, LIVER, S-9, AROCLOR 1254, Method: PREINCUBATION) was “active; positive”, the mutagenic call (Test System: AMES SALMONELLA TYPHIMURIUM, Strain/Indicator: TA98, Metabolic Activation: RAT, LIVER, S-9, AROCLOR 1254, Method: STANDARD PLATE) was “active; positive” and the mutagenic call (Test System: AMES SALMONELLA TYPHIMURIUM, Strain/Indicator: TA98, Metabolic Activation: RAT, LIVER, S-9, PHENOBARBITAL AND BETA-NAPHTHOFLAVONE, Method: PREINCUBATION) was “active; positive”. The mutagenic call (Test System: AMES SALMONELLA TYPHIMURIUM, Strain/Indicator: TA98, Metabolic Activation: RAT, LIVER, S-9, SODIUM PHENOBARBITAL AND 5,6-BENZOFLAVONE, Method: PREINCUBATION) was “active; positive”, the mutagenic call (Test System: AMES SALMONELLA TYPHIMURIUM, Strain/Indicator: TA98, Metabolic Activation: ZEA MAYS, S-2, Method: STANDARD PLATE) was “active; positive” and the mutagenic call (Test System: AMES SALMONELLA TYPHIMURIUM, Strain/Indicator: TA100(NR), Metabolic Activation: NONE, Method: PREINCUBATION) was “active; positive”. For the same molecule, the mutagenic call (Test System: AMES SALMONELLA TYPHIMURIUM, Strain/Indicator: TA100(NR), Metabolic Activation: RAT, LIVER, S-9, AROCLOR 1254, Method: PREINCUBATION) was “active; positive”, the mutagenic call (Test System: AMES SALMONELLA TYPHIMURIUM, Strain/Indicator: TA100, Metabolic Activation: NONE, Method: PREINCUBATION) was “active; positive” and the mutagenic call (Test System: AMES SALMONELLA TYPHIMURIUM, Strain/Indicator: TA100, Metabolic Activation: NONE, Method: STANDARD PLATE) was “active; positive”. The mutagenic call (Test System: AMES SALMONELLA TYPHIMURIUM, Strain/Indicator: TA100, Metabolic Activation: PEA APICAL BUD S-9, Method: PREINCUBATION) was “active; positive”, the mutagenic call (Test System: AMES SALMONELLA TYPHIMURIUM, Strain/Indicator: TA100, Metabolic Activation: PEA APICAL BUD S-9, Method: STANDARD PLATE) was “active; positive” and the mutagenic call (Test System: AMES SALMONELLA TYPHIMURIUM, Strain/Indicator: TA100, Metabolic Activation: RAT, LIVER, S-9, AROCLOR 1254, Method: PREINCUBATION) was “active; positive”. For the same molecule, the mutagenic call (Test System: AMES SALMONELLA TYPHIMURIUM, Strain/Indicator: TA100, Metabolic Activation: RAT, LIVER, S-9, AROCLOR 1254, Method: STANDARD PLATE) was “active; positive”, the mutagenic call (Test System: AMES SALMONELLA TYPHIMURIUM, Strain/Indicator: TA100, Metabolic Activation: RAT, LIVER, S-9, PHENOBARBITAL AND BETA-NAPHTHOFLAVONE, Method: PREINCUBATION) was “active; positive” and the mutagenic call (Test System: AMES SALMONELLA TYPHIMURIUM, Strain/Indicator: TA100, Metabolic Activation: ZEA MAYS, S-2, Method: STANDARD PLATE) was “active; positive”. For the same molecule, the mutagenic call (Test System: AMES SALMONELLA TYPHIMURIUM, Strain/Indicator: TA104, Metabolic Activation: NONE, Method: STANDARD PLATE) was “active; positive”, the mutagenic call (Test System: AMES SALMONELLA TYPHIMURIUM, Strain/Indicator: TA4001, Metabolic Activation: NONE, Method: STANDARD PLATE) was “inactive; negative” and the mutagenic call (Test System: AMES SALMONELLA TYPHIMURIUM, Strain/Indicator: TA4006, Metabolic Activation: NONE, Method: STANDARD PLATE) was “active; positive”. For the same molecule, the mutagenic call (Test System: AMES SALMONELLA TYPHIMURIUM, Strain/Indicator: TA7001, Metabolic Activation: NONE, Method: STANDARD PLATE) was “inactive; negative”, the mutagenic call (Test System: AMES SALMONELLA TYPHIMURIUM, Strain/Indicator: TA7001, Metabolic Activation: RAT LIVER S-9, AROCLOR 1254, Method: STANDARD PLATE) was “inactive; negative” and the mutagenic call (Test System: AMES SALMONELLA TYPHIMURIUM, Strain/Indicator: TA7002, Metabolic Activation: NONE, Method: STANDARD PLATE) was “active; positive”. The mutagenic call (Test System: AMES SALMONELLA TYPHIMURIUM, Strain/Indicator: TA7002, Metabolic Activation: RAT LIVER S-9, AROCLOR 1254, Method: STANDARD PLATE) was “active; positive”, the mutagenic call (Test System: AMES SALMONELLA TYPHIMURIUM, Strain/Indicator: TA7003, Metabolic Activation: NONE, Method: STANDARD PLATE) was “inactive; negative” and the mutagenic call (Test System: AMES SALMONELLA TYPHIMURIUM, Strain/Indicator: TA7004, Metabolic Activation: NONE, Method: STANDARD PLATE) was “active; positive”. For the same molecule, the mutagenic call (Test System: AMES SALMONELLA TYPHIMURIUM, Strain/Indicator: TA7004, Metabolic Activation: RAT LIVER S-9, AROCLOR 1254, Method: STANDARD PLATE) was “active; positive”, the mutagenic call (Test System: AMES SALMONELLA TYPHIMURIUM, Strain/Indicator: TA7005, Metabolic Activation: NONE, Method: STANDARD PLATE) was “active; positive” and the mutagenic call (Test System: AMES SALMONELLA TYPHIMURIUM, Strain/Indicator: TA7005, Metabolic Activation: RAT LIVER S-9, AROCLOR 1254, Method: STANDARD PLATE) was “active; positive”. The mutagenic call (Test System: Ames Salmonella typhimurium, Strain/Indicator: TA97a, Metabolic Activation: None, Method: Preincubation) was “active; positive (decrease in mutagenicity when 0.99-15.90 mg/plate of chloroform extrac”, the mutagenic call (Test System: Ames Salmonella typhimurium, Strain/Indicator: TA98, Metabolic Activation: None, Method: Preincubation) was “active; positive (decrease in mutagenicity when 0.99-15.90 mg/plate of chloroform extrac; also recorded: active; positive (dose related decrease in mutagenicity when 1.82-21.90 mg/plate of meth” and the mutagenic call (Test System: CHINESE HAMSTER OVARY, Strain/Indicator: CHO-K1-BH4 (HGPRT)/6-THIOGUANINE, Metabolic Activation: NONE) was “inactive; negative”. For the same molecule, the mutagenic call (Test System: CHINESE HAMSTER OVARY, Strain/Indicator: CHO-K1-BH4 (HGPRT)/6-THIOGUANINE, Metabolic Activation: S-9) was “inactive; negative”, the mutagenic call (Test System: E. COLI, Strain/Indicator: WP2 UVRA, Metabolic Activation: HAMSTER, LIVER, S-9, AROCLOR 1254, Method: STANDARD PLATE) was “inactive; negative” and the mutagenic call (Test System: E. COLI, Strain/Indicator: WP2 UVRA, Metabolic Activation: HAMSTER, LIVER, S-9, Method: STANDARD PLATE) was “inactive; negative”. For the same molecule, the mutagenic call (Test System: E. COLI, Strain/Indicator: WP2 UVRA, Metabolic Activation: MOUSE, LIVER, S-9, AROCLOR 1254, Method: STANDARD PLATE) was “inactive; negative”, the mutagenic call (Test System: E. COLI, Strain/Indicator: WP2 UVRA, Metabolic Activation: MOUSE, LIVER, S-9, Method: STANDARD PLATE) was “inactive; negative” and the mutagenic call (Test System: E. COLI, Strain/Indicator: WP2 UVRA, Metabolic Activation: NONE, Method: STANDARD PLATE) was “inactive; negative”. The mutagenic call (Test System: E. COLI, Strain/Indicator: WP2 UVRA, Metabolic Activation: RAT, LIVER, S-9, AROCLOR 1254, Method: STANDARD PLATE) was “inactive; negative”, the mutagenic call (Test System: E. COLI, Strain/Indicator: WP2 UVRA, Metabolic Activation: RAT, LIVER, S-9, Method: STANDARD PLATE) was “inactive; negative” and the mutagenic call (Test System: MOUSE LYMPHOMA, Strain/Indicator: L5178Y (TK+/TK-), Metabolic Activation: NONE, Method: SUSPENSION/PLATE) was “active; positive”. For the same molecule, the mutagenic call (Test System: MOUSE LYMPHOMA, Strain/Indicator: L5178Y (TK+/TK-), Metabolic Activation: RAT, LIVER, S-9, AROCLOR 1254, Method: SUSPENSION/PLATE) was “active; positive” and the mutagenic call (Test System: UDS RAT HEPATOCYTES, Strain/Indicator: THY INCORP, Metabolic Activation: NONE, Method: AUTORADIOGRAPHY (SERUM-FREE MEDIA)) was “active; positive”.
